Source: US9834521B2, “Choline kinase inhibitors” (ARIAD Pharmaceuticals, Inc., priority 2013, dated 2017)
Where two headings read alike, the source gives them in different places.

Columns and labels:
[1] = biological target: T1, truncated form of human Choline kinase α1 that includes residues 75-457 (Homo sapiens, UniProt P35790); assay: Kinase Assay, coupled (ATP regeneration) LDH/PK assay, NADH absorbance; format: biochemical
T1 construct: made in house
Protocol: Absorbance of NADH (340 nm) was measured over 30 min using a SpectraMax M5 (Molecular Devices). Initial reaction velocity (ΔA340/Δt) was calculated and plotted as a function of inhibitor concentration in a 2-fold dilution series. IC50 values were obtained by fitting the relative velocities to a dose-response model.

[2] = biological target: T2, ChoKα protein (Homo sapiens, UniProt P35790); assay: Binding affinity by surface plasmon resonance (SensiQ Pioneer, FastStep)
T2 construct: made in house
T2 sequence (P35790 75-457): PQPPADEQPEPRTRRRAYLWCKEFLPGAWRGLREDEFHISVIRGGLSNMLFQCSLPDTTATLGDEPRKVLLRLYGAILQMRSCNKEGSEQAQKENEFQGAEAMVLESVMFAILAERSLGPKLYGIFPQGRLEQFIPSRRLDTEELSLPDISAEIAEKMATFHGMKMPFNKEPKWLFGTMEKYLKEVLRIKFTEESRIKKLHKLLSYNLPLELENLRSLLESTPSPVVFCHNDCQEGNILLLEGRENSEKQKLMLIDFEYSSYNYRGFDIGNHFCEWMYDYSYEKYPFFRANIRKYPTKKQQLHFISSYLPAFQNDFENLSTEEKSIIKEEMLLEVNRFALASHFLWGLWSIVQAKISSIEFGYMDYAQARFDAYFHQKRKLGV
Protocol: KD may be measured using surface plasmon resonance (BIAcore®) technology, see, e.g., Panayotou et al, Mol. Cell. […] ChoKα protein was immobilized by standard amine coupling methods on a COOH5 sensor chip installed in a SensiQ Pioneer system. Sensograms were measured using the FastStep™ screen method with an upper concentration of 500 nM. Kinetics and affinity were obtained from fits using a 1:1 binding model.

[3] = Examples not designated with an asterisk, footnote prints version 1 of the Kinase Assay, read-out: IC50
[4] = SPR, 1:1 binding model, upper concentration 500 nM, read-out: Kd
[5] = Examples designated with an asterisk (*): version 1 of the Kinase Assay, 200 nM enzyme, read-out: IC50

T1 sequence (P35790 75-457): as above

Row | IC50 [1] [nM] | Kd [2] [nM] | IC50 [1, 3] [nM] | Kd [2, 4] [nM] | IC50 [1, 5] [nM] | Compound
1 | < 200 | < 60000 | – | – | – | CN1CCCN(Cc2ccc(-c3ccc(C(F)(F)F)cc3)cc2)CC1 [Example 137, 1-methyl-4-((4′-(trifluoromethyl)-[1,1′-biphenyl]-4-yl)methyl)-1,4-diazepane]
2 | – | – | < 200 | < 200 | – | CCN(CC)C(=O)c1ccc(-c2ccc(CN3CCCN(C)CC3)cc2C#N)cc1 [Example 27, 2′-cyano-N,N-diethyl-4′-((4-methyl-1,4-diazepan-1-yl)methyl)-[1,1′-biphenyl]-4-carboxamide]
3 | – | – | < 100 | < 50 | – | COc1ccc(-c2cc(C(=O)N3CCCN(C)CC3)ccc2-c2ccc(CN3CCCN(C)CC3)cc2C#N)cc1OC [Example 81, 3″,4″-dimethoxy-4-((4-methyl-1,4-diazepan-1-yl)methyl)-4′-(4-methyl-1,4-diazepane-1-carbonyl)-[1,1′1:2′,1″-terphenyl]-2-carbonitrile]
4 | – | – | < 200 | < 200 | – | CN1CCCN(Cc2ccc(-c3ccc(S(C)(=O)=O)cc3)c(C#N)c2)CC1 [Example 94, 4-((4-methyl-1,4-diazepan-1-yl)methyl)-4′-(methylsulfonyl)-[1,1′-biphenyl]-2-carbonitrile]
5 | – | – | < 100 | < 50 | – | CN(C)CCCNC(=O)c1ccc(-c2ccc(CN3CCCN(C)CC3)cc2C#N)cc1 [Example 30, 2′-cyano-N-(3-(dimethylamino)propyl)-4′-((4-methyl-1,4-diazepan-1-yl)methyl)-[1,1′-biphenyl]-4-carboxamide]
6 | – | – | < 100 | < 50 | – | CN1CCCN(Cc2ccc(-c3ccc(C(=O)N4CCCN(C)CC4)cc3-c3ccc(CN4CCOCC4)cc3)c(C#N)c2)CC1 [Example 80, 4-((4-methyl-1,4-diazepan-1-yl)methyl)-4′-(4-methyl-1,4-diazepane-1-carbonyl)-4″-(morpholinomethyl)-[1,1′:2′,1″-terphenyl]-2-carbonitrile]
7 | – | – | < 200 | < 200 | – | CN1CCCN(Cc2ccc(-c3ccc(C(=O)N4CCCN(C)CC4)cc3C#N)c(C#N)c2)CC1 [Example 63, 4-((4-methyl-1,4-diazepan-1-yl)methyl)-4′-(4-methyl-1,4-diazepane-1-carbonyl)-[1,1′-biphenyl]-2,2′-dicarbonitrile]
8 | – | – | < 100 | < 50 | – | CN1CCCN(Cc2ccc(-c3ccc(C(=O)N4CCCN(C)CC4)cc3-c3cccc([N+](=O)[O-])c3)c(C#N)c2)CC1 [Example 77, 4-((4-methyl-1,4-diazepan-1-yl)methyl)-4′-(4-methyl-1,4-diazepane-1-carbonyl)-3″-nitro-[1,1′:2′,1″-terphenyl]-2-carbonitrile]
9 | – | – | < 200 | < 60000 | – | CN1CCCN(Cc2ccc(-c3ccc(CC#N)cc3)c(C#N)c2)CC1 [Example 93, 4′-(cyanomethyl)-4-((4-methyl-1,4-diazepan-1-yl)methyl)-[1,1′-biphenyl]-2-carbonitrile]
10 | – | – | < 200 | < 200 | – | CN1CCCN(Cc2ccc(-c3ccc(CN4CCN(C)CC4)cc3)c(C#N)c2)CC1 [Example 11, 4-((4-methyl-1,4-diazepan-1-yl)methyl)-4′-((4-methylpiperazin-1-yl)methyl)-[1,1′-biphenyl]-2-carbonitrile]
11 | – | – | < 200 | < 100 | – | CN1CCCN(Cc2ccc(-c3ccc(CN4CCN(CCO)CC4)cc3)c(C#N)c2)CC1 [Example 6, 4′-((4-(2-hydroxyethyl)piperazin-1-yl)methyl)-4-((4-methyl-1,4-diazepan-1-yl)methyl)-[1,1′-biphenyl]-2-carbonitrile]
12 | – | – | < 100 | < 50 | – | CN1CCCN(Cc2ccc(-c3ccc(CN(C)CCO)cc3)c(C#N)c2)CC1 [Example 8, 4′-(((2-hydroxyethyl)(methyl)amino)methyl)-4-((4-methyl-1,4-diazepan-1-yl)methyl)-[1,1′-biphenyl]-2-carbonitrile]
13 | – | – | < 100 | < 100 | – | CN1CCCN(Cc2ccc(-c3ccc(C(=O)N4CCCN(C)CC4)cc3-c3cn[nH]c3)c(C#N)c2)CC1 [Example 71, 4-((4-methyl-1,4-diazepan-1-yl)methyl)-4′-(4-methyl-1,4-diazepane-1-carbonyl)-2′-(1H-pyrazol-4-yl)-[1,1′-biphenyl]-2-carbonitrile]
14 | – | – | < 200 | < 200 | – | CN1CCCN(Cc2ccc(-c3ccc(S(=O)(=O)N4CCOCC4)cc3)c(C#N)c2)CC1 [Example 88, 4-((4-methyl-1,4-diazepan-1-yl)methyl)-4′-(morpholinosulfonyl)-[1,1′-biphenyl]-2-carbonitrile]
15 | – | – | < 200 | < 200 | – | CN1CCCN(Cc2ccc(-c3ccc(C(=O)N4CCCN(C)CC4)cc3-c3ccncc3)c(C#N)c2)CC1 [Example 72, 4-((4-methyl-1,4-diazepan-1-yl)methyl)-4′-(4-methyl-1,4-diazepane-1-carbonyl)-2′-(pyridin-4-yl)-[1,1′-biphenyl]-2-carbonitrile]
16 | < 200 | < 60000 | – | – | – | CN1CCCN(Cc2ccc(-c3ccc(N4CCN(C)CC4)cc3)cc2)CC1 [Example 138, 1-methyl-4-((4′-(4-methylpiperazin-1-yl)-[1,1′-biphenyl]-411)methyl)-1,4-diazepane]

Row | IC50 [1] [nM] | Kd [2] [nM] | IC50 [1, 3] [nM] | Kd [2, 4] [nM] | IC50 [1, 5] [nM] | Compound
17 | – | – | < 200 | < 200 | – | CN1CCCN(Cc2ccc(-c3ccc(CN)cc3)c(C#N)c2)CC1 [Example 16, 4′-(aminomethyl)-4-((4-methyl-1,4-diazepan-1-yl)methyl)-[1,1′-biphenyl]-2-carbonitrile]
18 | – | – | < 100 | < 100 | – | CN1CCCN(Cc2ccc(-c3ccc(CN4CCCC(O)C4)cc3)c(C#N)c2)CC1 (stereo not drawn) [Example 1, 4′-((3-hydroxypiperidin-1-yl)methyl)-4-((4-methyl-1,4-diazepan-1-yl)methyl)-[1,1′-biphenyl]-2-carbonitrile]
19 | – | – | – | < 60000 | < 200 | CN1CCCN(Cc2ccc(-c3ccncc3)cc2)CC1 [Example 140, 1-methyl-4-(4-(pyridin-4-yl)benzyl)-1,4-diazepane]
20 | – | – | – | < 60000 | < 200 | CN1CCCN(Cc2ccc(CNc3ccc(N4CCN(C)CC4)cc3)cc2)CC1 [Example 153, N-(4-((4-methyl-1,4-diazepan-1-yl)methyl)benzyl)-4-(4-methylpiperazin-1-yl)aniline]
21 | – | – | < 200 | < 60000 | – | Cc1cc(CN2CCCN(C)CC2)ccc1-c1ccc(CO)cc1 [Example 51, (2′-methyl-4′-((4-methyl-1,4-diazepan-1-yl)methyl)-[1,1′-biphenyl]-4-yl)methanol]
22 | – | – | < 100 | < 100 | – | CN1CCCN(Cc2ccc(-c3ccc(S(=O)(=O)NCCO)cc3)c(C#N)c2)CC1 [Example 85, 2′-cyano-N-(2-hydroxyethyl)-4′-((4-methyl-1,4-diazepan-1-yl)methyl)-[1,1′-biphenyl]-4-sulfonamide]
23 | – | – | < 100 | < 100 | – | CNC(=O)Nc1ccc(-c2ccc(CN3CCCN(C)CC3)cc2C#N)cc1 [Example 114, 1-(2′-cyano-4′-((4-methyl-1,4-diazepan-1-yl)methyl)-[1,1′-biphenyl]-4-yl)-3-methylurea]
24 | – | – | – | < 60000 | < 200 | CN1CCCN(Cc2ccc(-c3ccccc3)c(F)c2)CC1 [Example 134, 1-((2-fluoro-[1,1′-biphenyl]-4-yl)methyl)-4-methyl-1,4-diazepane]
25 | – | – | < 100 | < 100 | – | CN1CCCN(Cc2ccc(-c3ccc(CN4CCCN(C)CC4)cc3[N+](=O)[O-])cc2)CC1 [Example 57, 4,4′-((2-nitro-[1,1′-biphenyl]-4,4′-diyl)bis(methylene))bis(1-methyl-1,4-diazepane)]
26 | – | – | < 500 | – | – | CN1CCCN(Cc2ccc(-c3ccc(C#N)cc3)c(C#N)c2)CC1 [Example 105, 4-((4-methyl-1,4-diazepan-1-yl)methyl)-[1,1′-biphenyl]-2,4′-dicarbonitrile]
27 | – | – | < 500 | – | – | Cc1cc(S(=O)(=O)N(C)C)ccc1-c1ccc(CN2CCCN(C)CC2)cc1C#N [Example 98, 2′-cyano-N,N,2-trimethyl-4′-((4-methyl-1,4-diazepan-1-yl)methyl)-[1,1′-biphenyl]-4-sulfonamide]
28 | – | – | < 2000 | – | – | CN1CCCN(Cc2ccc(-c3ccc(Oc4ccccc4N)cc3)c(C#N)c2)CC1 [Example 115, 4′-(2-aminophenoxy)-4-((4-methyl-1,4-diazepan-1-yl)methyl)-[1,1′-biphenyl]-2-carbonitrile]
29 | – | – | < 500 | – | – | COCCN1CCN(Cc2ccc(-c3ccc(CN4CCCN(C)CC4)cc3C#N)cc2)CC1 [Example 3, 4′-((4-(2-methoxyethyl)piperazin-1-yl)methyl)-4-((4-methyl-1,4-diazepan-1-yl)methyl)-[1,1′-biphenyl]-2-carbonitrile]
30 | – | – | < 500 | – | – | CN1CCCN(Cc2ccc(-c3ccc(C(=O)N4CCCN(C)CC4)cc3-c3ccccc3)c(C#N)c2)CC1 [Example 65, 4-((4-methyl-1,4-diazepan-1-yl)methyl)-4′-(4-methyl-1,4-diazepane-1-carbonyl)-[1,1′:2′,1″-terphenyl]-2-carbonitrile]
31 | – | – | < 500 | – | – | CN1CCCN(Cc2ccc(-c3ccc(CN4CCCN(C)CC4)cc3CNC=O)cc2)CC1 [Example 53, N-((4,4′-bis((4-methyl-1,4-diazepan-1-yl)methyl)-[1,1′-biphenyl]-2-yl)methyl)formamide]
32 | – | – | < 500 | – | – | CN1CCCN(Cc2ccc(-c3ccc(C(=O)N4CCN(C)CC4)cc3)c(C#N)c2)CC1 [Example 24, 4-((4-methyl-1,4-diazepan-1-yl)methyl)-4′-(4-methylpiperazine-1-carbonyl)-[1,1′-biphenyl]-2-carbonitrile]
